Structures can show the parent of a compound that is named as a salt.

For this experiment, the target named is T1, PDE4B (human recombinant) (Homo sapiens, UniProt Q07343).
T1 construct: made in house
T1 sequence (Q07343 1-564 isoform Q07343-2): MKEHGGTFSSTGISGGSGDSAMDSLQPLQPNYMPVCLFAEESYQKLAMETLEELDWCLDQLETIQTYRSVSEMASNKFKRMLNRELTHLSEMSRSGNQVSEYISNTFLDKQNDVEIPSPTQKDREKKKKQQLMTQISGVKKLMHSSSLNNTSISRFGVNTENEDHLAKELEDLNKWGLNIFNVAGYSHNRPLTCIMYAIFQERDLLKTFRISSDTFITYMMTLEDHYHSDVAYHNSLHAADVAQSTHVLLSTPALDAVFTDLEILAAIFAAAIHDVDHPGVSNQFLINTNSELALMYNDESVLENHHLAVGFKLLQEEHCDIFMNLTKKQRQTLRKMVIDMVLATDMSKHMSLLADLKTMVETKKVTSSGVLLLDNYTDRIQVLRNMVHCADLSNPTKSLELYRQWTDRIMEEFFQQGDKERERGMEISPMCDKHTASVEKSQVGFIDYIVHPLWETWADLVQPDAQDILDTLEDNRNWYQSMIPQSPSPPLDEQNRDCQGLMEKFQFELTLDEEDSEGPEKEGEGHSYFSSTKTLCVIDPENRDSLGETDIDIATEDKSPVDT
Briefly: PDE4B inhibition, fluorescence polarisation (FP) and/or SPA assay. It counts as biochemical. The following applies: n=1 or average of 2 or more readings, accuracy ±about 0.5 log unit, read-out: PDE4B pIC50 (generally in FP assay) (±about 0.5) (converted). From the text: Human recombinant PDE4B, in particular the 2B splice variant thereof (HSPDE4B2B), is disclosed in WO 94/20079 and also M. M. McLaughlin et al., “A low Km, rolipram-sensitive, cAMP-specific phosphodiesterase from human brain: cloning and expression of cDNA, biochemical characterisation of recombinant protein, and tissue distribution of mRNA”, J. Biol. Chem., 1993, 268, 6470-6476. For example, in Example 1 of WO 94/20079, human recombinant PDE4B is described as being expressed in the PDE-deficient yeast Saccharomyces cerevisiae strain GL62, e.g. after induction by addition of 150 uM CuSO4, and 100,000×g supernatant fractions of yeast cell lysates are described for use in the harvesting of PDE4B enzyme.
The ability of compounds to inhibit catalytic activity at PDE4B or 4D (human recombinant), PDE3 (from bovine aorta), PDE5 (human recombinant) or PDE6 (from bovine retina) can optionally be determined by Scintillation Proximity Assay (SPA) in a 96-well format.
Test compounds (as a solution in DMSO, preferably about 2 microliter (ul) volume of DMSO solution) are preincubated at ambient temperature (room temperature, e.g. 19-23° C.) in Wallac Isoplates (code 1450-514) with PDE enzyme in 50 mM Tris-HCl buffer pH 7.5, 8.3 mM MgCl2, 1.7 mM EGTA, 0.05% (w/v) bovine serum albumin for 10-30 minutes (usually 30 minutes). The enzyme concentration is adjusted so that no more than 20% hydrolysis of the substrate defined below occurs in control wells without compound, during the incubation. For the PDE3, PDE4B and PDE4D assays, [5′,8-3H]Adenosine 3′,5′-cyclic phosphate (Amersham Pharmacia Biotech, code TRK.559; or Amersham Biosciences UK Ltd, Pollards Wood, Chalfont St Giles, Buckinghamshire HP8 4SP, UK) is added to give 0.05 uCi per well and about 10 nM final concentration. For the PDE5 and PDE6 assays, [8-^3H]Guanosine 3′,5′-cyclic phosphate (Amersham Pharmacia Biotech, code TRK.392) is added to give 0.05 uCi per well and about 36 nM final concentration. Plates containing assay mixture, preferably approx. 100 ul volume of assay mixture, are mixed on an orbital shaker for 5 minutes and incubated at ambient temperature for 1 hour. Phosphodiesterase SPA beads (Amersham Pharmacia Biotech, code RPNQ 0150) are added (about 1 mg per well) to terminate the assay. Plates are sealed and shaken and allowed to stand at ambient temperature for 35 minutes to 1 hour (preferably 35 minutes) to allow the beads to settle. Bound radioactive product is measured using a WALLAC TRILUX 1450 Microbeta scintillation counter. For inhibition curves, 10 concentrations (e.g. 1.5 nM-30 uM) of each compound are assayed. Curves are analysed using ActivityBase and XLfit (ID Business Solutions Limited, 2 Ocean Court, Surrey Research Park, Guildford, Surrey GU2 7QB, United Kingdom) Results are expressed as pIC50 values.
The ability of compounds to inhibit catalytic activity at PDE4B (human recombinant) or PDE4D (human recombinant) can optionally be determined by IMAP Fluorescence Polarisation (FP) assay (IMAP Explorer kit, available from Molecular Devices Corporation, Sunnydale, Calif., USA; Molecular Devices code: R8062) in 384-well format.
The IMAP FP assay is able to measure PDE activity in an homogenous, non-radioactive assay format. The FP assay uses the ability of immobilised trivalent metal cations, coated onto nanoparticles (tiny beads), to bind the phosphate group of FI-AMP that is produced on the hydrolysis of fluorescein-labelled (FI) cyclic adenosine mono-phosphate (FI-cAMP) to the non-cyclic FI-AMP form. […] Binding of FI-AMP product to the beads (coated with the immobilised trivalent cations) slows the rotation of the bound FI-AMP and leads to an increase in the fluorescence polarisation ratio of parallel to perpendicular light. Inhibition of the PDE reduces/inhibits this signal increase. […]
A general note: Fluorescence polarisation rises when a labelled molecule tumbles more slowly, as on binding a larger partner.
Turning to `CCc1nc2c(cnn2CC)c(NC2CCOCC2)c1CNC(=O)c1ccc(-c2ccc(C(=O)NCc3c(CC)nc4c(cnn4CC)c3NC3CCOCC3)cn2)nc1` [Example 34, N,N′-bis{[1,6-diethyl-4-(tetrahydro-2H-pyran-4-ylamino)-1H-pyrazolo[3,4-b]pyridin-5-yl]methyl}-2,2′-bipyridine-5,5′-dicarboxamide], the IC50 was 0.126 to 1 nM. In the case of `CCc1nc2c(cnn2CC)c(NC2CCOCC2)c1CNC(=O)COCC(=O)NCc1c(CC)nc2c(cnn2CC)c1NC1CCOCC1` [Example 9, 2,2′-oxybis(N-{[1,6-diethyl-4-(tetrahydro-2H-pyran-4-ylamino)-1H-pyrazolo[3,4-b]pyridin-5-yl]methyl}acetamide)], the IC50 is 0.126 to 1 nM. `CCc1nc2c(cnn2CC)c(NC2CCOCC2)c1CNC(=O)c1ccnc(-c2cc(C(=O)NCc3c(CC)nc4c(cnn4CC)c3NC3CCOCC3)ccn2)c1` [Example 31, N,N′-bis{[1,6-diethyl-4-(tetrahydro-2H-pyran-4-ylamino)-1H-pyrazolo[3,4-b]pyridin-5-yl]methyl}-2,2′-bipyridine-4,4′-dicarboxamide]: the IC50 was 0.0158 to 0.1 nM. With `CCc1nc2c(cnn2CC)c(NC2CCOCC2)c1CNC(=O)c1ccc(C(=O)NCc2c(CC)nc3c(cnn3CC)c2NC2CCOCC2)cc1` [Example 22, N,N′-bis{[1,6-diethyl-4-(tetrahydro-2H-pyran-4-ylamino)-1H-pyrazolo[3,4-b]pyridin-5-yl]methyl}-1,4-benzenedicarboxamide], the IC50 was 0.126 to 1 nM.

Regarding `CCc1nc2c(cnn2CC)c(NC2CCN(C(N)=O)CC2)c1CNC(=O)Cc1cccc(C(=O)NCc2c(CC)nc3c(cnn3CC)c2NC2CCN(C(N)=O)CC2)c1` [Example 13, 4-({5-[({[3-({[(4-{[1-(aminocarbonyl)-4-piperidinyl]amino}-1,6-diethyl-1H-pyrazolo[3,4-b]pyridin-5-yl)methyl]amino}carbonyl)phenyl]acetyl}amino)methyl]-1,6-diethyl-1H-pyrazolo[3,4-b]pyridin-4-yl}amino)-1-piperidinecarboxamide trifluoroacetate], the IC50 was 0.126 to 1 nM.

As for `CCc1nc2c(cnn2CC)c(NC2CCOCC2)c1CNC(=O)c1ccc(Oc2ccc(C(=O)NCc3c(CC)nc4c(cnn4CC)c3NC3CCOCC3)cc2)cc1` [Example 24, 4,4′-oxybis(N-{[1,6-diethyl-4-(tetrahydro-2H-pyran-4-ylamino)-1H-pyrazolo[3,4-b]pyridin-5-yl]methyl}benzamide)], the IC50 was 0.126 to 1 nM. Take `CCc1nc2c(cnn2CC)c(NC2CCN(C(N)=O)CC2)c1CNC(=O)CCc1ccc(C(=O)NCc2c(CC)nc3c(cnn3CC)c2NC2CCN(C(N)=O)CC2)cc1` [Example 14, 4-({5-[({3-[4-({[(4-{[1-(aminocarbonyl)-4-piperidinyl]amino}-1,6-diethyl-1H-pyrazolo[3,4-b]pyridin-5-yl)methyl]amino}carbonyl)phenyl]propanoyl}amino)methyl]-1,6-diethyl-1H-pyrazolo[3,4-b]pyridin-4-yl}amino)-1-piperidinecarboxamide trifluoroacetate]: the IC50 is 0.0158 to 0.1 nM.

For the compound `CCc1nc2c(cnn2CC)c(NC2CCN(C(N)=O)CC2)c1CNC(=O)CS(=O)(=O)CC(=O)NCc1c(CC)nc2c(cnn2CC)c1NC1CCN(C(N)=O)CC1` [Example 12, 4,4′-{sulfonylbis[(1-oxo-2,1-ethanediyl)iminomethanediyl(1,6-diethyl-1H-pyrazolo[3,4-b]pyridine-5,4-diyl)imino]}di(1-piperidinecarboxamide) trifluoroacetate], the IC50 was 0.0158 to 0.1 nM. With `CCc1nc2c(cnn2CC)c(NC2CCN(C(N)=O)CC2)c1CNC(=O)c1ccc(Cc2ccc(C(=O)NCc3c(CC)nc4c(cnn4CC)c3NC3CCN(C(N)=O)CC3)cc2)cc1` [Example 18, 4,4′-{methanediylbis[benzene-4,1-diyl(oxomethanediyl)iminomethanediyl(1,6-diethyl-1H-pyrazolo[3,4-b]pyridine-5,4-diyl)imino]}di(1-piperidinecarboxamide) trifluoroacetate], the IC50 is 0.0158 to 0.1 nM. Under `CCc1nc2c(cnn2CC)c(NC2CCN(C(N)=O)CC2)c1CNC(=O)c1ccc(C(=O)NCc2c(CC)nc3c(cnn3CC)c2NC2CCN(C(N)=O)CC2)cc1` [Example 25, N,N′-bis[(4-{[1-(aminocarbonyl)-4-piperidinyl]amino}-1,6-diethyl-1H-pyrazolo[3,4-b]pyridin-5-yl)methyl]-1,4-benzenedicarboxamide] stands 0.0158 to 0.1 nM; under `CCc1nc2c(cnn2CC)c(NC2CCOCC2)c1CNC(=O)CCCC(=O)NCc1c(CC)nc2c(cnn2CC)c1NC1CCOCC1` [Example 2, N,N′-bis{[1,6-diethyl-4-(tetrahydro-2H-pyran-4-ylamino)-1H-pyrazolo[3,4-b]pyridin-5-yl]methyl}pentanediamide], 0.126 to 1 nM; under `CCc1nc2c(cnn2CC)c(NC2CCN(C(N)=O)CC2)c1CNC(=O)c1ccc(Oc2ccc(C(=O)NCc3c(CC)nc4c(cnn4CC)c3NC3CCN(C(N)=O)CC3)cc2)cc1` [Example 27, 4,4′-{oxybis[benzene-4,1-diyl(oxomethanediyl)iminomethanediyl(1,6-diethyl-1H-pyrazolo[3,4-b]pyridine-5,4-diyl)imino]}di(1-piperidinecarboxamide)], 0.0158 to 0.1 nM.

With `CCc1nc2c(cnn2CC)c(NC2CCN(C(N)=O)CC2)c1CNC(=O)C1CCC(C(=O)NCc2c(CC)nc3c(cnn3CC)c2NC2CCN(C(N)=O)CC2)CC1` (centres unmarked) [Example 11, N,N′-bis[(4-{[1-(aminocarbonyl)-4-piperidinyl]amino}-1,6-diethyl-1H-pyrazolo[3,4-b]pyridin-5-yl)methyl]-1,4-cyclohexanedicarboxamide trifluoroacetate], the IC50 is 0.0158 to 0.1 nM. Take `CCc1nc2c(cnn2CC)c(NC2CCN(C(N)=O)CC2)c1CNC(=O)Cc1ccc(C(=O)NCc2c(CC)nc3c(cnn3CC)c2NC2CCN(C(N)=O)CC2)cc1` [Example 15, 4-({5-[({[4-({[(4-{[1-(aminocarbonyl)-4-piperidinyl]amino}-1,6-diethyl-1H-pyrazolo[3,4-b]pyridin-5-yl)methyl]amino}carbonyl)phenyl]acetyl}amino)methyl]-1,6-diethyl-1H-pyrazolo[3,4-b]pyridin-4-yl}amino)-1-piperidinecarboxamide trifluoroacetate]: the IC50 is 0.0158 to 0.1 nM. For `CCc1nc2c(cnn2CC)c(NC2CCN(C(N)=O)CC2)c1CNC(=O)CC(C)(C)CC(=O)NCc1c(CC)nc2c(cnn2CC)c1NC1CCN(C(N)=O)CC1` [Example 19, N,N′-bis[(4-{[1-(aminocarbonyl)-4-piperidinyl]amino}-1,6-diethyl-1H-pyrazolo[3,4-b]pyridin-5-yl)methyl]-3,3-dimethylpentanediamide trifluoroacetate], the IC50 is 0.0158 to 0.1 nM.

In the case of `CCc1nc2c(cnn2CC)c(NC2CCN(C(N)=O)CC2)c1CNC(=O)C1CCC(C(=O)NCc2c(CC)nc3c(cnn3CC)c2NC2CCN(C(N)=O)CC2)C1` (centres unmarked) [Example 20, N,N′-bis[(4-{[1-(aminocarbonyl)-4-piperidinyl]amino}-1,6-diethyl-1H-pyrazolo[3,4-b]pyridin-5-yl)methyl]-1,3-cyclopentanedicarboxamide trifluoroacetate], the IC50 was 0.0158 to 0.1 nM. For `CCc1nc2c(cnn2CC)c(NC2CCOCC2)c1CNC(=O)c1cnc(C(=O)NCc2c(CC)nc3c(cnn3CC)c2NC2CCOCC2)cn1` [Example 32, N,N′-bis{[1,6-diethyl-4-(tetrahydro-2H-pyran-4-ylamino)-1H-pyrazolo[3,4-b]pyridin-5-yl]methyl}-2,5-pyrazinedicarboxamide], the IC50 was 0.126 to 1 nM.
